This is an account of results in US20170114049A1, “2,5-DISUBSTITUTED CYCLOPENTANE CARBOXYLIC ACIDS FOR THE TREATMENT OF RESPIRATORY TRACT DISEASES” (BAYER PHARMA AKTIENGESELLSCHAFT, priority 2014, published 2017).

In one data set the test system is rat hepatocytes. Briefly: Hepatocyte assay for determination of metabolic stability. Conditions: after incubation with rat hepatocytes.
A further data set addresses T1, MMP-7 (Homo sapiens, UniProt P09237).
T1 construct: purchased R&D Systems 907-MP
T1 sequence (P09237 95-267): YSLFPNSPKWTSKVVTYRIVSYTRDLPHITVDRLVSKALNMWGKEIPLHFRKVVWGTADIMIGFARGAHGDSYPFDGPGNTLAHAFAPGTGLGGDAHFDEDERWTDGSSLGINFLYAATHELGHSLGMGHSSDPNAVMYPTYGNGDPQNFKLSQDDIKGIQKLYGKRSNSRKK
The data set can be described thus: In vitro MMP-7 inhibition test. The format is biochemical. From the text: (§1) The MMP-mediated amidolytic cleavage of a suitable peptide substrate leads to an increase in fluorescent light here too. The signal intensity of the fluorescent light is directly proportional to the enzyme activity. The active concentration of a test compound at which half the enzyme is inhibited (50% signal intensity of the fluorescent light) is reported as the […].
(§2) Recombinant MMP-7 (from R&D Systems, 907-MP) is chemically activated in accordance with the manufacturer's instructions using APMA. 1 μl of the test compound to be analysed (as a solution in DMSO, suitable concentrations, for example, 1 nM to 30 μM) is pipetted into 24 μl of activated enzyme (final concentration, for example, 0.5 nM) in reaction buffer (50 mM Tris/HCl pH 7.5, 10 mM CaCl2, 150 mM NaCl, 0.05% Brij®-35) in a white 384-hole microtiter plate (MTP). The enzymatic reaction is started by adding the intramolecularly quenched Mca-Pro-Leu-Gly-Leu-Dpa(Dnp)-Ala-Arg-NH2 substrate (final concentration, for example, 10 μM; R&D Systems, ES-001), so as to result in a total test volume of 50 μl. The course of the MMP-7 reaction is measured by measuring the fluorescence intensity (excitation 320 nm, emission 410 nm) over a suitable period of time (for example over 120 min at a temperature of 32° C.).

The target in the next data set is T2, mouse MMP-12 (Mus musculus, UniProt P34960).
T2 construct: purchased R&D Systems 3467-MP
Briefly: In vitro mouse MMP-12 inhibition test (standard or high-sensitivity). Type of data set: biochemical.
Description: as §1
Recombinant mouse MMP-12 (from R&D Systems, 3467-MP) is autocatalytically activated in accordance with the manufacturer's instructions. 1 μl of the test compound to be analysed (as a solution in DMSO, suitable concentrations, for example, 1 nM to 30 μM) is pipetted into 24 μl of activated enzyme (final concentration, for example, 1 nM) in reaction buffer (50 mM Tris/HCl pH 7.5, 10 mM CaCl2, 150 mM NaCl, 0.05% Brij®-35) in a white 384-hole microtiter plate (MTP). The enzymatic reaction is started by adding the intramolecularly quenched Mca-Lys-Pro-Leu-Gly-Leu-Dpa(Dnp)-Ala-Arg-NH2 substrate (final concentration, for example, 5 μM; R&D Systems, ES-010), so as to result in a total test volume of 50 μl. The course of the MMP-12 reaction is measured by measuring the fluorescence intensity (excitation 320 nm, emission 410 nm) over a suitable period of time (for example over 120 min at a temperature of 32° C.).
In this case, an enzyme concentration ten times lower is used (final concentration, for example, 0.1 nM) in order to achieve an elevated test sensitivity. The incubation period chosen for the test is correspondingly longer (for example 16 hours).

The next data set deals with T3, mouse MMP-9 (Mus musculus, UniProt P41245).
T3 construct: purchased R&D Systems 909-MP
The data set can be described thus: In vitro mouse MMP-9 inhibition test. The format is biochemical.
Description: as §1
as §2, with “Recombinant mouse MMP-9” for “Recombinant MMP-7”, “Systems, 909-MP)” for “Systems, 907-MP)”, “example, 0.1” for “example, 0.5”, “example, 5” for “example, 10”, “the MMP-9” for “the MMP-7”

Data set [1] in a line: Determination of solubility in PBS buffer pH 6.5. The following applies: PBS buffer pH 6.5, 1% DMSO, room temperature; for solubility at 24 h: PBS buffer, pH 6.5, aqueous buffer, kinetic from dmso stock.
Description: The test substance is dissolved in DMSO. An aliquot is taken from this solution and introduced into PBS buffer pH 6.5 (DMSO content: 1%). This solution/suspension is agitated at room temperature for 24 h. After ultracentrifugation at 114000 g for 30 min, the supernatant is removed, diluted with acetonitrile/water 8:2 and analysed by LC-MSMS. Quantification is effected by means of a five-point calibration curve of the test compound in DMSO.

Values after ≈ are worked out from the molar mass of the structure shown.

T3 sequence (P41245 108-730): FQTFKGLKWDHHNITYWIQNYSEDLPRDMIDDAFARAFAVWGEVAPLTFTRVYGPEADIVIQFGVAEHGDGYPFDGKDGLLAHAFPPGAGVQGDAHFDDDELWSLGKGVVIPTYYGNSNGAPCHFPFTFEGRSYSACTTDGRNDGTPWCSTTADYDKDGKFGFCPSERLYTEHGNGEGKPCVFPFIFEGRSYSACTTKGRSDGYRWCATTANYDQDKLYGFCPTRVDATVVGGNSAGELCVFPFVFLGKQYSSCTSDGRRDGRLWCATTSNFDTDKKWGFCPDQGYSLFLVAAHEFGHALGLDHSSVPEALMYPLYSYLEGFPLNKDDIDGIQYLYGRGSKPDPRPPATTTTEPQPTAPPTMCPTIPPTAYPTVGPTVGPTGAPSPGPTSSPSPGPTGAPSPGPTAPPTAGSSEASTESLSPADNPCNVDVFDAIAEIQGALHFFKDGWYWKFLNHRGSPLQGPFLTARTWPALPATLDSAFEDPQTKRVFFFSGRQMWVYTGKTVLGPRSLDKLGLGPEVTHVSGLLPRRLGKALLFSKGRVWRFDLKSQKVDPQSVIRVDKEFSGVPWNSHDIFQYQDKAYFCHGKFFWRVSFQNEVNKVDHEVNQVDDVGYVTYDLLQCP
T2 sequence (P34960 110-473): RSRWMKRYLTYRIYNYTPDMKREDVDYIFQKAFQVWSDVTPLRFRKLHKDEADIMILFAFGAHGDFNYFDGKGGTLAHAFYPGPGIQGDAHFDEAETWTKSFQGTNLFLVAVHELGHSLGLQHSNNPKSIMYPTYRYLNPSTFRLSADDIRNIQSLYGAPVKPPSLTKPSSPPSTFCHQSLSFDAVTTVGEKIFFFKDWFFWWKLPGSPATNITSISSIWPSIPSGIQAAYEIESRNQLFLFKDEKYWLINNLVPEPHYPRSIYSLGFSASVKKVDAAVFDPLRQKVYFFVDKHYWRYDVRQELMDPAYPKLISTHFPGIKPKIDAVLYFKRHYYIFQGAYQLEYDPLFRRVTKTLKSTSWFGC
Description for rat hepatocytes: Seven samples from the incubation solution are taken for the LC-MS analysis within a fixed time pattern, in order to determine the half-life (i.e. the degradation) of the particular compound. This half life is used to calculate various “Clearance” parameters (CL) and “Fmax” values (see below).
The CL and Fmax values are a measure of the phase 1 and phase 2 metabolism of the compounds in the hepatocytes. In order to minimize the influence of the organic solvent on the enzymes in the incubation batches, the concentration thereof is generally limited to 1% (acetonitrile) or 0.1% (DMSO).
For all species and breeds, a hepatocyte cell count in the liver of 1.1*10^8 cells/g of liver is expected.
The parameters calculated and the meanings thereof are: • Fmax well-stirred [%] maximum possible bioavailability after oral administration • Calculation: (1-CLblood well-stirred/QH)*100 • CLblood well-stirred [L/(h*kg)] calculated blood clearance (well-stirred model) • Calculation: (QH*CLintrinsic)/(QH+CL′intrinsic) • CL′intrinsic[ml/(min*kg)] maximum ability of the liver (of the hepatocytes) to metabolize a compound (assuming that the liver blood flow is not rate-limiting) • Calculation: CLintrinsic, apparent* species-specific hepatocyte count [1.1* 10^8/g liver]*species-specific liver weight [g/kg] • CL′intrinsic, apparent[ml/(min*mg)] normalizes the elimination constant by dividing it by the hepatocyte cell count x used (x*10^6/ml) • Calculation: kcl[1/min]/(cell count [x*10^6]/incubation volume [ml]) • (QH=species-specific liver blood flow).

By IC50 is commonly meant the concentration at which inhibition is half-maximal. Read a low IC50 as greater potency in that assay. In the case of `O=C(O)[C@@H]1[C@@H](Cn2nnc3ccccc3c2=O)CC[C@H]1C(=O)c1ccc(OCC2CCOCC2)cc1` (stereo in doubt) [Example 2, (+)-(1RS,2SR,5RS)-2-[(4-Oxo-1,2,3-benzotriazin-3(4H)-yl)methyl]-5-[4-(tetrahydro-2H-pyran-4-ylmethoxy)benzoyl]cyclopentanecarboxylic acid], the “CLblood (calculated blood clearance, well-stirred)” value in the data set with rat hepatocytes is 0.44 L/h/kg. Also, the “Fmax (maximum possible bioavailability after oral administration, well-stirred)” value (“Fmax” below) in the data set with rat hepatocytes is 89.5%. Further, the IC50 at MMP-7 worked out at 640 nM; at mouse MMP-12, 0.85 nM; against mouse MMP-9, 280 nM.
Usually solubility stands for the concentration that dissolves in the medium under given conditions. `O=C(O)[C@@H]1[C@@H](Cn2nnc3ccccc3c2=O)CC[C@H]1C(=O)c1ccc(OCCC2CCOCC2)cc1` (single isomer, unassigned) [Example 5, (+)-(1RS,2SR,5RS)-2-[(4-Oxo-1,2,3-benzotriazin-3(4H)-yl)methyl]-5-{4-[2-(tetrahydro-2H-pyran-4-yl)ethoxy]benzoyl}cyclopentanecarboxylic acid]: the IC50 at MMP-7 is 600 nM; against mouse MMP-12, 0.67 nM; at mouse MMP-9, 210 nM. In addition, the solubility at 24 h in data set [1] turned out to be 338 µg/mL (≈ 669 µM).
For the compound `O=C(O)[C@@H]1[C@@H](Cn2nnc3ccc(C(F)(F)F)cc3c2=O)CC[C@H]1C(=O)c1ccc(OCCC2CCOCC2)cc1` (single isomer, unassigned) [Example 11, (+)-(1RS,2SR,5RS)-2-{[4-Oxo-6-(trifluoromethyl)-1,2,3-benzotriazin-3(4H)-yl]methyl}-5-{4-[2-(tetrahydro-2H-pyran-4-yl)ethoxy]benzoyl}cyclopentanecarboxylic acid], the IC50 against MMP-7 is 190 nM; at mouse MMP-12 it was 9.4 nM; against mouse MMP-9, 1900 nM. Also, the concentration in solution in data set [1] (solubility at 24 h) was 210 µg/mL (≈ 366 µM).
By Solubility is commonly meant the dissolved amount per volume that the medium holds. The low end stands for little dissolved substance, the high end for much dissolved substance. For the compound “(+)-(1RS,2SR,5RS)-2-{[4-Oxo-6-(trifluoromethyl)-1,2,3-benzotriazin-3(4H)-yl]methyl}-5-[4-(tetra-hydro-2H-pyran-4-ylmethoxy)benzoyl]cyclopentanecarboxylic acid [Example 8]”, in the data set with rat hepatocytes, the “CLblood (calculated blood clearance, well-stirred)” value is 0.29 L/h/kg and the “Fmax” value is 93.1%. On MMP-7, this compound showed an IC50 of 45 nM. Also, the Solubility in data set [1] (24 h) is 4.5 mg/L.
Take `O=C(O)[C@H]1[C@H](Cn2nnc3ccccc3c2=O)CC[C@@H]1C(=O)c1ccc(OCC2CCOCC2)cc1` (stereo in doubt) [Example 1, (+/−)-(1RS,2SR,5RS)-2-[(4-Oxo-1,2,3-benzotriazin-3(4H)-yl)methyl]-5-[4-(tetrahydro-2H-pyran-4-ylmethoxy)benzoyl]cyclopentanecarboxylic acid]: the “CLblood (calculated blood clearance, well-stirred)” value with rat hepatocytes is 1.02 L/h/kg. Also, the “Fmax” value in the data set on rat hepatocytes is reported as 75.7%. In addition, the IC50 against MMP-7 was 1200 nM; at mouse MMP-12 it was 3.3 nM; on mouse MMP-9, 560 nM. For the same compound, the solubility at 24 h in data set [1] worked out at 52.2 µg/mL (≈ 106 µM).
`O=C(O)[C@H]1[C@H](Cn2nnc3ccc(C(F)(F)F)cc3c2=O)CC[C@@H]1C(=O)c1ccc(OCC2CCOCC2)cc1` (racemic) [Example 7, (+/−)-(1RS,2SR,5RS)-2-{[4-Oxo-6-(trifluoromethyl)-1,2,3-benzotriazin-3(4H)-yl]methyl}-5-[4-(tetrahydro-2H-pyran-4-ylmethoxy)benzoyl]cyclopentanecarboxylic acid] had an IC50 at MMP-7 of 130 nM.
With `O=C(O)[C@H]1[C@H](Cn2nnc3ccccc3c2=O)CC[C@@H]1C(=O)c1ccc(OCCC2CCOCC2)cc1` (stereo in doubt) [Example 4, (+/−)-(1RS,2SR,5RS)-2-[(4-Oxo-1,2,3-benzotriazin-3(4H)-yl)methyl]-5-{4-[2-(tetrahydro-2H-pyran-4-yl)ethoxy]benzoyl}cyclopentanecarboxylic acid], the IC50 against MMP-7 was determined as 3200 nM; against mouse MMP-12, 7.7 nM; against mouse MMP-9, 1500 nM. Moreover, in data set [1], the concentration in solution (solubility at 24 h) was 51.4 µg/mL (≈ 102 µM).
The matching figures for `O=C(O)[C@H]1[C@H](Cn2nnc3ccc(C(F)(F)F)cc3c2=O)CC[C@@H]1C(=O)c1ccc(OCCC2CCOCC2)cc1` (stereo in doubt) [Example 10, (+/−)-(1RS ,2S R,5RS)-2-{[4-Oxo-6-(trifluoromethyl)-1,2,3-benzotriazin-3(4H)-yl]methyl}-5-{4-[2-(tetrahydro-2H-pyran-4-yl)ethoxy]benzoyl}cyclopentanecarboxylic acid]: 96 nM, 2.8 nM, 930 nM and 33.4 µg/mL (≈ 58.2 µM).
Regarding `Cc1ccc2nnn(C[C@H]3CC[C@@H](C(=O)c4ccc(OCCC5CCOCC5)cc4)[C@@H]3C(=O)O)c(=O)c2c1` (single isomer, unassigned) [Example 20, (+)-(1RS,2SR,5RS)-2-[(6-Methyl-4-oxo-1,2,3-benzotriazin-3(4H)-yl)methyl]-5-{4-[2-(tetrahydro-2H-pyran-4-yl)ethoxy]benzoyl}cyclopentanecarboxylic acid], the figures for the IC50 at MMP-7, against mouse MMP-12 and on mouse MMP-9 were 290 nM, 1.7 nM and 800 nM, respectively. Further, in data set [1], the concentration in solution (solubility at 24 h) was 425 µg/mL (≈ 818 µM).
The matching figures for `Cc1ccc2nnn(C[C@@H]3CC[C@H](C(=O)c4ccc(OCCC5CCOCC5)cc4)[C@H]3C(=O)O)c(=O)c2c1` (racemic) [Example 19, (+/−)-(1RS,2SR,5RS)-2-[(6-Methyl-4-oxo-1,2,3-benzotriazin-3(4H)-yl)methyl]-5-{4-[2-(letrahydro-2H-pyran-4-yl)ethoxy]benzoyl}cyclopentanecarboxylic acid]: 1100 nM, 7.6 nM, 2200 nM and 17 µg/mL (≈ 32.7 µM).
At MMP-7, `O=C(O)[C@@H]1[C@@H](Cn2nnc3ccc(C(F)(F)F)cc3c2=O)CC[C@H]1C(=O)c1ccc(SCC2CCOCC2)cc1` (single isomer, unassigned) [Example 15, (+)-(1RS,2SR,5RS)-2-{[4-Oxo-6-(trifluoromethyl)-1,2,3-benzotriazin-3(4H)-yl]methyl}-5-{4-[(tetrahydro-2H-pyran-4-ylmethyl)sulphanyl]benzoyl}cyclopentanecarboxylic acid] registered an IC50 of 80 nM.
